Measured values reported in patent US12582641B2, “Sulfur-containing compound based on glutarimide skeleton and application thereof” (SHANGHAITECH UNIVERSITY, priority 2019, dated 2026).

The molecules below were run on MM.1S cells (assay: Proliferation inhibition (IC50) in MM.1S cells, cell viability assay). Details: Homo sapiens, MM1.S, 72 h, read-out: IC50 (nM), proliferation inhibitory activity of MM.1S cells (half inhibitory concentration).

Compared with C[C@H](NCc1ccc(CSc2cccc3c2CN(C2CCC(=O)NC2=O)C3=O)o1)C1CC1 (stereo partly drawn) [SIAIS313129, 3-(4-(((5-((((S)-1-cyclopropylethyl)amino)methyl)furan-2-yl)methyl)thio)-1-oxoisoindolin-2-yl)piperidine-2,6-dione], O=C1CCC(N2Cc3c(SCc4ccc(CN5CCOCC5)o4)cccc3C2=O)C(=O)N1 (stereo not drawn) [SIAIS313126, 3-(4-(((5-(morpholinomethyl)furan-2-yl)methyl)thio)-1-oxoisoindolin-2-yl)piperidine-2,6-dione] is 3.1-fold higher in IC50: 0.97 ± 0.55 nM for the first, 2.97 ± 0.79 nM for the second.

CC1CC(C)CN(CCCCCCCSc2cccc3c2CN(C2CCC(=O)NC2=O)C3=O)C1 (stereo not drawn) [SIAIS1221021, 3-(4-((7-(3,5-dimethylpiperidin-1-yl)heptyl)thio)-1-oxoisoindolin-2-yl)piperidine-2,6-dione] and O=C1CCC(N2Cc3c(SCCCCCCCN4CCCCC4)cccc3C2=O)C(=O)N1 (stereo not drawn) [SIAIS1220105, 3-(1-oxo-4-((7-(piperidin-1-yl)heptyl)thio)isoindolin-2-yl)piperidine-2,6-dione] are within 1.5-fold of each other in IC50: 0.047 ± 0.001 nM for the first, 0.06 nM for the second.

First: Cc1ccc(NC(=O)NCCCCCCCCSc2cccc3c2CN(C2CCC(=O)NC2=O)C3=O)cc1Cl (stereo not drawn) [SIAIS269072, 1-(3-chloro-4-methylphenyl)-3-(8-((2-(2,6-dioxopiperidin-3-yl)-1-oxoisoindolin-4-yl)thio)octyl)urea]
Second: O=C1CCC(N2Cc3c(SCCCCCCCNC4CCC4)cccc3C2=O)C(=O)N1 (stereo not drawn) [SIAIS1222115, 3-(4-((7-(cyclobutylamino)heptyl)thio)-1-oxoisoindolin-2-yl)piperidine-2,6-dione]
The IC50 of the first is 2.6-fold higher: 0.468 nM for the first, 0.182 nM for the second. The second is the more potent here.

Going from O=C1CCC(N2Cc3c(SCCCCCCCCCN4CCOCC4)cccc3C2=O)C(=O)N1 (stereo not drawn) [SIAIS1220065, 3-(4-((9-morpholinononyl)thio)-1-oxoisoindolin-2-yl)piperidine-2,6-dione] to O=C1CCC(N2Cc3c(SCCCCCN4CCOCC4)cccc3C2=O)C(=O)N1 (stereo not drawn) [SIAIS1216061, 3-(4-((5-morpholinopentyl)thio)-1-oxoisoindolin-2-yl)piperidine-2,6-dione], the IC50 rises from 0.49 nM to 2.52 ± 0.22 nM (5.1-fold). The first is the more potent here.

Compared with O=C1CCC(N2Cc3c(SCCCCCCCN4CCC5(CC4)CC5)cccc3C2=O)C(=O)N1 (stereo not drawn) [SIAIS1222195, 3-(4-((7-(6-azaspiro[2.5]octan-6-yl)heptyl)thio)-1-oxoisoindolin-2-yl)piperidine-2,6-dione], O=C1CCC(N2Cc3c(SCCCCCCCN4CCCCCC4)cccc3C2=O)C(=O)N1 (stereo not drawn) [SIAIS1220163, 3-(4-((7-(azepan-1-yl)heptyl)thio)-1-oxoisoindolin-2-yl)piperidine-2,6-dione] is 1.5-fold lower in IC50: 0.046 nM for the first, 0.03 nM for the second.

First: CSc1cccc2c1CN(C1CCC(=O)NC1=O)C2=O (stereo not drawn) [SIAIS1210071, 3-(4-(methylthio)-1-oxoisoindolin-2-yl)piperidine-2,6-dione]
Second: O=C1CCC(N2Cc3c(SCCCCCCCN4CCCCC4=O)cccc3C2=O)C(=O)N1 (stereo not drawn) [SIAIS264042, 3-(1-oxo-4-((7-(2-oxopiperidin-1-yl)heptyl)thio)isoindolin-2-yl)piperidine-2,6-dione]
The IC50 of the first is 66-fold higher: 3.37 ± 0.48 nM for the first, 0.051 nM for the second. The second is the more potent here.

O=C1CCC(N2Cc3c(SCCCCCCCNC45CC6CC(CC4C6)C5)cccc3C2=O)C(=O)N1 (stereo not drawn) [SIAIS1228055, 3-(4-((7-((hexahydro-2,5-methanopentalen-3a(1H)-yl)amino)heptyl)thio)-1-oxoisoindolin-2-yl)piperidine-2,6-dione] and O=C1CCC(N2Cc3c(SCc4cccc(CNC56CC7CC(CC(C7)C5)C6)c4)cccc3C2=O)C(=O)N1 (stereo not drawn) [SIAIS1227135, 3-(4-((3-(((adamantan-1-yl)amino)methyl)benzyl)thio)-1-oxoisoindolin-2-yl)piperidine-2,6-dione] are within error of each other in IC50: 0.028 nM for the first, 0.03 ± 0.01 nM for the second.

For O=C1CCC(N2Cc3c(SCc4ccc(CN5CCCCC5)cc4F)cccc3C2=O)C(=O)N1 (stereo not drawn) [SIAIS1227175, 3-(4-((2-fluoro-4-(piperidin-1-ylmethyl)benzyl)thio)-1-oxoisoindolin-2-yl)piperidine-2,6-dione], the IC50 was 0.073 nM.
